According to US20250032476A1, “ALPHA-2A ADRENERGIC RECEPTOR MODULATORS AND USES THEREOF” (The Regents of the University of California, priority 2021, published 2025):
“And” between values parts separate entries of the source, which are not always exact repeats. Equal values may be shown once. Read-outs that look alike come from different tables or passages of the source.

Legend:
human α2AAR [1] = biological target: T1, human α2AAR (Homo sapiens (Human), UniProt P08913); assay: Radioligand competition binding to human α2AAR (HEK293T membranes, [3H]RX82,1002); conditions: human α2AAR
human α2AAR [2] = biological target: T1, human α2AAR; assay: Gαi G protein activation, BRET biosensor assay in HEK293T cells; conditions: for Emax: HEK-293T
human α2AAR [3] = biological target: T1, human α2AAR; assay: DiscoverX HitHunter cAMP G-protein activation assay; conditions: read-out: Gi/o Emax
Method: DiscoverX HitHunter cAMP G-protein activation assay. […] Freezer stock cAMP Hunter cell lines were expanded, then seeded in a total volume of 20 uL into white walled, 384-well microplates and incubated at 37° C. prior to testing. For agonist determination, cells were incubated with compound samples in the presence of EC80 forskolin to induce response. Media was aspirated from cells and replaced with 15 uL 2:1 HBSS/10 mM Hepes: cAMP XS+Ab reagent. Intermediate dilution of sample stocks was performed to generate 4× sample in assay buffer containing 4× EC80 forskolin. […] Finally assay vehicle concentration was 1%. After sample incubation assay signal was generated through incubation with 20 uL cAMP XS+ED/CL lysis cocktail for one hour followed by incubation with 20 uL cAMP XS+EA reagent for three hours at room temperature. Microplates were read following signal generation with a PerkinElmer Envision Instrument for chemiluminescent signal detection. Compound activity was analyzed using CBIS data analysis suite. For Gi agonist mode, percentage activity is calculated using the following formula: % Activity=100%×(1−(mean RLU of test sample−mean RLU of MAX control)/(mean RLU of vehicle control−mean RLU of MAX control)). […] Each measurement was done in duplicate.
DiscoverX HitHunter cAMP G-protein activation assay. […] Freezer stock cAMP Hunter cell lines were expanded, then seeded in a total volume of 20 μL into white walled, 384-well microplates and incubated at 37° C. prior to testing. For agonist determination, cells were incubated with compound samples in the presence of EC50 forskolin to induce response. Media was aspirated from cells and replaced with 15 μL 2:1 HBSS/10 mM Hepes: cAMP XS+Ab reagent. Intermediate dilution of sample stocks was performed to generate 4× sample in assay buffer containing 4× EC80 forskolin. […] Finally assay vehicle concentration was 1%. After sample incubation assay signal was generated through incubation with 20 μL cAMP XS+ED/CL lysis cocktail for one hour followed by incubation with 20 μL cAMP XS+EA reagent for three hours at room temperature. Microplates were read following signal generation with a PerkinElmer Envision Instrument for chemiluminescent signal detection. Compound activity was analyzed using CBIS data analysis suite. For Gi agonist mode, percentage activity is calculated using the following formula: % Activity=100%×(1−(mean RLU of test sample−mean RLU of MAX control)/(mean RLU of vehicle control−mean RLU of MAX control)). […] Each measurement was done in duplicate.

human α2AAR [4] = biological target: T1, human α2AAR; assay: β-arrestin-2 recruitment, BRET biosensor assay in HEK293T cells; conditions: HEK-293T
Method: Bioluminescense resonance energy transfer. G protein mediated activation of human α2AAR and D2long was monitored with Gαi1-RLucII (71, 72) together with Gβ1 and Gγ1-GFP10. Arrestin recruitment was performed by enhanced bystander BRET using CAAX-rGFP and β-arrestin-2-RLucII as biosensors (all biosensors are provided from M. Bouvier, Université de Montréal, Canada) (71, 73) in the presence of GRK2 as described (66, 74). In brief, HEK293T cells were transfected with a total amount of 3.3 μg DNA per 10^6 cells using linear polyethyleneimine (PEI, Polysciences, 3:1 PEI:DNA ratio) and transferred into 96-well half-area plates (Greiner, Frickenhausen, Germany) at a density of 10,000 cells per well and incubated for 48 hrs. Medium was exchanged with PBS (Hank's balanced salt solution) and cells were stimulated with ligands at 37° C. for 10 min for Gαi stimulation or arrestin recruitment, respectively.

[5] = biological target: T2, ALPHA-2A ADRENERGIC RECEPTOR (Homo sapiens (Human), UniProt P08913); assay: Gi recruitment (G protein); type: cell-based; conditions: for functional classification (agonist / weak agonist): Table 6, result in words
α2AAR F427^7.39 mutant = α2AAR F427^7.39 mutant (Homo sapiens (Human), UniProt P08913, F427A); assay: Gi activation (BRET) at α2AAR F427^7.39 mutant; type: cell-based
Method: (§1) Investigating the sensitivity of selected ligands to the receptor mutants α2AAR-D128^3.32A, α2AAR-D128^3.32T, α2AAR-D128^3.32L, α2AAR-S215^5.42A, α2AAR-Y409^6.55A, α2AAR-Y409^6.55T, α2AAR-Y409^6.55F, α2AAR-F427^7.39F, α2AAR-Y431^7.43A, and α2AAR-Y431^7.43F was determined by monitored G protein stimulation as described above transfecting the appropriate receptor together with Gαi1-RLucII and Gβ1/Gγ1-GFP10. […] Three to ten experiments were done in duplicate.
(§2) The sensitivity of selected ligands to the receptor mutants α2AAR-D128^3.32A, α2AAR-D128^3.32T, α2AAR-D128^3.32L, α2AAR-S215^5.42A, α2AAR-Y409^6.55A, α2AAR-Y409^6.55T, α2AAR-Y409^6.55F, α2AAR-F427^7.39F, α2AAR-Y431^7.43A, and α2AAR-Y431^7.43F was monitored by G protein activation as described above transfecting the appropriate receptor together with Gαi1-RLucII and Gβ1/Gγ2-GFP10. […] Similarly, the effect of the α2AAR-D128^3.32A, α2AAR-S215^5.42A, α2AAR-Y409^6.55A, α2AAR-Y409^6.55F, α2AAR-F427^7.39F, α2AAR-Y431^7.43A, and α2AAR-Y431^7.43F mutations on arrestin recruitment was evaluated as described above transfecting the appropriate receptor together with CAAX-rGFP, GRK2 and β-arrestin-2-RLucII. Data was analyzed as ligand induced changes in BRET compared to vehicle (deltaBRET). Three to seven experiments were done in duplicate.

[6] = Pharmacokinetics in mice (plasma, brain, CSF); type: in vivo; conditions: I.P. 10 mg/kg
Method: Pharmacokinetics. Pharmacokinetic experiments were performed by Bienta (Enamine Biology Services) in accordance with Enamine pharmacokinetic study protocols and Institutional Animal Care and Use Guidelines (protocol number 1-2/2020). […] In each compound study, nine time points (5, 15, 30, 60, 120, 240, 360, 480 and 1440 min) were collected, each of the time point treatment group included 3 animals. There was also a control group of one animal. In the ‘9087, ‘7075, ‘4622 studies, male C57BL/6N mice were used, for PS75 CD-1 mice, and for ‘2998 male Balb/cAnN mice. For all compound studies the animals were randomly assigned to the treatment groups before the pharmacokinetic study; all animals were fasted for 4 h before dosing. For injections, ‘9087 was dissolved in Captisol—water (40%:60%, w/v), ‘4622 was dissolved in a 20% Kolliphor HS—physiological saline solution, and ‘7075, PS75, and ‘2998 were dissolved in a 20% 2-HPBCD—aqueous solution. The batches of working formulations were prepared 10 minutes prior to the in vivo study.
(§3) Mice were injected i.p. with 2,2,2-tribromoethanol at 150 mg/kg prior to drawing CSF and blood. CSF was collected under a stereomicroscope from cisterna magna using 1 mL syringes. Blood collection was performed from the orbital sinus in microtainers containing K3EDTA. Animals were sacrificed by cervical dislocation after the blood samples collection. Blood samples were centrifuged 10 min at 3000 rpm. Brain samples (right lobe) were weighed and transferred into 1.5 ml tubes. All samples were immediately processed, flash-frozen and stored at −70° C. until subsequent analysis.
Plasma samples (40 μL) were mixed with 200 μL of internal standard (IS) solution. After mixing by pipetting and centrifuging for 4 min at 6000 rpm, 4 μL of each supernatant was injected into the LC-MS/MS system. Solutions of internal standards were used to quantify compounds in the plasma samples. […] After this, the samples were centrifuged for 4 min at 14,000 rpm, and supernatant was injected into LC-MS/MS system. CSF samples (2 μL) were mixed with 40 μL of an internal stock solution. After mixing by pipetting and centrifuging for 4 min at 6,000 rpm, 5 μL of each supernatant was injected into LC-MS/MS system.
(§4) Analyses of plasma, brain and CSF samples were conducted at Enamine/Bienta. The concentrations of compounds in plasma and brain samples were determined using high performance liquid chromatography/tandem mass spectrometry (HPLC-MS/MS). Data acquisition and system control was performed using Analyst 1.5.2 software (AB Sciex, Canada). […] Pharmacokinetic data analysis was performed using noncompartmental, bolus injection or extravascular input analysis models in WinNonlin 5.2 (PharSight).
as §3, with “mL” for “ml”
as §4
Additional pharmacokinetic experiments were performed by Sai Life Sciences (Hyderabad, India) in accordance with the Sai Study Protocol SAIDMPK/PK-22-04-0340. […] Testing was done in C57BL/6 mice.

SNI mice = assay: Spared-nerve injury (SNI) model of neuropathic pain, von Frey mechanical thresholds; type: in vivo
Method: Spared-nerve injury (SNI) model of neuropathic pain. Under isoflurane anesthesia, two of the three branches of the sciatic nerve were ligated and transected distally, leaving the sural nerve intact. Behavior was tested 7 to 14 days after injury and in situ hybridization was performed one week post-injury.

CFA mice = assay: Complete Freund's Adjuvant (CFA) inflammatory pain model, Hargreaves test; conditions: mouse, in vivo
Method: The CFA model of chronic inflammation was induced as described previously (96). Briefly, CFA (Sigma) was diluted 1:1 with saline and vortexed for 30 minutes. When fully suspended, we injected 20 μL of CFA into one hindpaw. Heat thresholds were measured before the injection (baseline) and 3 days after using the Hargreaves test.
The CFA model of chronic inflammation was induced as described previously (100). Briefly, CFA (Sigma) was diluted 1:1 with saline and vortexed for 30 minutes. When fully suspended, we injected 20 μL of CFA into one hindpaw. Heat thresholds were measured before the injection (baseline) and 3 days after using the Hargreaves test.

mice = assay: Rotarod motor test (motor impairment and sedation); type: in vivo; conditions: equi-analgesic doses (DEX: higher doses)
[7] = biological target: T2, ALPHA-2A ADRENERGIC RECEPTOR; assay: Arrestin recruitment; type: cell-based; conditions: Tables 7-9
α2AAR-Y431^7.43A/F = α2AAR-Y431^7.43A/F (Homo sapiens, UniProt P08913, Y431A); assay: Gi activation (BRET) at α2AAR Y431^7.43 mutants; type: cell-based
Method: as §1, §2

[8] = mean ± SEM (Table 3), read-out: Ki
[9] = Gi recruitment, Table 6, read-out: EC50
[10] = Gi recruitment, Table 6, read-out: Emax (%)
[11] = Gi EC50 ± SE, BRET biosensor, human α2AAR (Table 3)
[12] = Gi recruitment, Tables 7-9, read-out: G protein Emax (%)

T1 sequence (P08913 whole entry): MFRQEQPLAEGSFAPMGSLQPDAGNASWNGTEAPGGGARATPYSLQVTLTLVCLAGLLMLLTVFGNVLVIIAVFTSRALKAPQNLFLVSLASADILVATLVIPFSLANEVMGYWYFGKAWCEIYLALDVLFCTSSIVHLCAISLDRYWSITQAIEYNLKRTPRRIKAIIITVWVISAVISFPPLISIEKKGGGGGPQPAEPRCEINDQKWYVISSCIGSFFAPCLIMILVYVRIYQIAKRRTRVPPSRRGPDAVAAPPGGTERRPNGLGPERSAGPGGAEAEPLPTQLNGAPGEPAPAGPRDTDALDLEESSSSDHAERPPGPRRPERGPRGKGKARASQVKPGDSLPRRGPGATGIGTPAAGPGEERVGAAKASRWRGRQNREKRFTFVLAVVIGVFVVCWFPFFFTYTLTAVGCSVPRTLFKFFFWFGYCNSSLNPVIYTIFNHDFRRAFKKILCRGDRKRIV
T2 sequence (P08913 whole entry): as above
Sequence of α2AAR F427^7.39 mutant (P08913 whole entry F427A): as the sequence (P08913 whole entry) above, with F427A counted along it

c1ccc(Nc2cncc3ccccc23)cc1
Ki (human α2AAR [1]; [8]): > 10000 nM | Emax (human α2AAR [2]; read-out: Gi Emax @ 0.1 mM): 57%

Nc1ccc(Nc2cncc3ccccc23)cc1
Ki (human α2AAR [1]; [8]): 4600 ± 2100 nM | Emax (human α2AAR [2]; read-out: Gi Emax ± SEM): < 5%

c1ccc2c(Oc3ccncc3)cccc2c1
Ki (human α2AAR [1]; [8]): 1800 ± 730 nM | Emax (human α2AAR [2]; read-out: Gi Emax @ 0.1 mM): 43%

c1ccc2c(Nc3ccncc3)ncnc2c1
Ki (human α2AAR [1]; [8]): 6600 ± 1800 nM | Emax (human α2AAR [2]; read-out: Gi Emax ± SEM): < 5%

Brc1c(NC2=NCCN2)ccc2nccnc12 [Brimonidine, brimonidine, reference compound]
Emax (human α2AAR [3]): 107 ± 7%

Clc1cccc(Cl)c1N=C1NCCN1 [CLON, clonidine, reference compound]
Emax (human α2AAR [2]; read-out: Gαi Emax): 115 ± 4% | Emax (human α2AAR [4]; read-out: β-arrestin-2 Emax): 41 ± 3%

Clc1ncc2ccccc2c1Nc1ccncc1 [Compound 1718, 3-chloro-N-(pyridin-4-yl)isoquinolin-4-amine]
Ki (human α2AAR [1]; [8]): 22 ± 6.7 nM | functional classification (agonist / weak agonist) ([5]; Gi recruitment): agonist | EC50 [5, 9]: 8 nM | Emax [5, 10]: 45% | EC50 (human α2AAR [2]; [11]): 14 nM | Emax (human α2AAR [2]; read-out: Gi Emax ± SEM): 47% | Emax (human α2AAR [4]; read-out: β-Arr-2 Emax): < 5%

C1=C(c2ccc3c(c2)CC3)CNCC1 [Compound 4622, 5-(Bicyclo[4.2.0]octa-1,3,5-trien-3-yl)-1,2,3,6-tetrahydropyridine]
Ki (human α2AAR [1]; mean ± s.e.m., read-out: Ki for α2AAR): 12 ± 3.6 nM | Gi activity at F427^7.39 substitution (α2AAR F427^7.39 mutant): eliminated | half-life ([6]; C57BL/6N ('9087, '7075, '4622), CD-1 (PS75), mouse, CSF, ip, read-out: T ½ CSF (converted)): 14.5 h | AUC Brain [6]: 1160000 ng·min/mL | AUC CSF [6]: 18400 ng·min/mL | Cmax Brain [6]: 16200 ng/mL | Cmax CSF [6]: 44.2 ng/mL | half-life ([6]; mouse, brain, ip, read-out: T ½ Brain (converted)): 0.88 h | AUC ([6]; mouse, plasma, ip): 567 ng·h/mL | Cmax ([6]; mouse, plasma, ip): 620 ng/mL | half-life ([6]; mouse, plasma, ip, read-out: T ½ Plasma (converted)): 1.01 h | Effect of atipamezole on the agonist's effect in SNI mice (SNI mice; atipamezole 2 mg/kg, 15 minutes prior): reversed by atipamezole | Mechanical thresholds / anti-allodynic effect in SNI mice (SNI mice; systemic injection): exhibited anti-allodynic effects | Thermal latencies / anti-hyperalgesic effect in CFA model (CFA mice): exhibited anti-hyperalgesic effects | Motor impairment / sedation in rotarod test (mice): slight motor impairment | EC50 [5]: 45 nM | Emax [5, 12]: 76% | Emax [7]: < 5% | EC50 (human α2AAR [2]; Gαi EC50, BRET biosensor, HEK293T, human α2AAR): 9.7 ± 2.4 nM | Emax (human α2AAR [2]; read-out: Gαi Emax): 74 ± 4% | Emax (human α2AAR [4]; read-out: β-arrestin-2 Emax): < 5%

c1cc(Nc2ccncc2)c2sccc2c1 [Compound 4914]
Ki (human α2AAR [1]; [8]): 7.2 ± 1 nM | EC50 [5, 9]: 6.8 nM | Emax [5, 10]: 76% | EC50 (human α2AAR [2]; [11]): 9.1 nM | Emax (human α2AAR [2]; read-out: Gi Emax ± SEM): 77% | Emax (human α2AAR [4]; read-out: β-Arr-2 Emax): < 5%

Cc1cccc([C@H](C)c2cnc[nH]2)c1C [DEX, dexmedetomidine, reference compound]
Motor impairment / sedation in rotarod test (mice): significant impairment and complete sedation at higher doses | Emax (human α2AAR [3]): 76 ± 3% | Emax (human α2AAR [2]; read-out: Gαi Emax): 105 ± 4% | Emax (human α2AAR [4]; read-out: β-arrestin-2 Emax): 60 ± 3%

COc1ccc2cccc(Nc3ccncc3)c2c1 [PS71]
Ki (human α2AAR [1]; [8]): 240 ± 120 nM | functional classification (agonist / weak agonist) ([5]; Gi recruitment): agonist | EC50 [5, 9]: 89 nM | Fold reduced Gi activity compared to ‘5879 (human α2AAR [2]): 15 fold and 16 fold | EC50 (human α2AAR [2]; [11]): 100 nM | Emax (human α2AAR [2]; read-out: Gi Emax ± SEM): 85% | Emax (human α2AAR [4]; read-out: β-Arr-2 Emax): < 5%

O=C1CCc2c(cccc2Nc2ccncc2)N1 [PS84]
Ki (human α2AAR [1]; [8]): 500 ± 87 nM | functional classification (agonist / weak agonist) ([5]; Gi recruitment): agonist | EC50 [5, 9]: 450 nM | EC50 (human α2AAR [2]; [11]): 840 nM | Emax (human α2AAR [2]; read-out: Gi Emax ± SEM): 37%

O=C1NCCc2c(Nc3ccncc3)cccc21 [PS86]
Ki (human α2AAR [1]; [8]): 1200 ± 560 nM | functional classification (agonist / weak agonist) ([5]; Gi recruitment): agonist | EC50 [5, 9]: 3200 nM | EC50 (human α2AAR [2]; [11]): 3400 nM | Emax (human α2AAR [2]; read-out: Gi Emax ± SEM): 91%

NC1CCc2ccc(C3=CCCNC3)cc21 (stereo not drawn) [TP92]
G protein effect at 100 μM ([5]; at 100 μM): 18% at 100 μM | Emax [7]: < 5%

Nc1ccnc(Cc2ccc(F)cc2)c1 [TP94, 2-(4-Fluorobenzyl)pyridin-4-amine]
EC50 ([5]; Gi recruitment, Tables 7-9, read-out: G protein EC50): 5000 nM | Emax [5, 12]: 19% | Emax [7]: < 10%

CC1=CCc2cc(C3=CCCNC3)ccc21 [TP97, 5-(3-Methyl-1H-inden-6-yl)-1,2,3,6-tetrahydropyridine]
Emax [5, 12]: < 10% | Emax [7]: < 5%

C=C(c1ccc(C(F)(F)F)cc1)c1cc(N)ccn1 [TP101, 2-(1-(4-(Trifluoromethyl)phenyl)vinyl)pyridin-4-amine]
Emax [5, 12]: < 5% | Emax [7]: < 5%

C=C1CCc2cc(C3=CCCNC3)ccc21 [TP105, 5-(1-Methylene-2,3-dihydro-1H-inden-5-yl)-1,2,3,6-tetrahydropyridine]
Emax [5, 12]: < 5% | Emax [7]: < 5%

NC[C@H](O)c1ccc(O)c(O)c1 [norepinephrine]
Gi signaling at Y431^7.43A (α2AAR-Y431^7.43A/F): essentially eliminated
